The results in this text go back to patent publication US20160287568A1, “COMPOSITION OF A NON-NUCLEOSIDE REVERSE TRANSCRIPTASE INHIBITOR” (MERCK SHARP & DOHME CORP., priority 2013, published 2016).

Where two headings read alike, the source gives them in different places.

A short description of data set [1]: Storage of neat amorphous spray dried drug in open container, crystallization. In kind it is physicochemical. As to conditions: neat amorphous drug generated by spray drying. The text has this:
It is well understood that crystallization tendency varies dramatically across active pharmaceutical ingredients (Journal of Pharmaceutical Sciences, Vol. 99, No. 9, September 2010) and the rate of crystallization is a function of the thermodynamic driving force and the mobility of the system (Angell, C. A., Formation of Glasses from Liquids and Biopolymers. Science, 1995. 267(5206): p. 1924-1935. Mullin, J. W., Crystallization. 4th ed. 2001, Oxford: Reed Educational and Professional Publishing Ltd. Hoffman, J. D., Thermodynamic Driving Force in Nucleation and Growth Processes. Journal of Chemical Physics, 1958. 29(5): p. 1192-1193. Adam, G. and Gibbs, J. H., On Temperature Dependence of Cooperative Relaxation Properties in Glass-Forming Liquids. Journal of Chemical Physics, 1965. 43(1): p. 139-146. Ediger, M. D., Supercooled liquids and glasses. Journal of Physical Chemistry, 1996. 100(31): p. 13200-13212.). […] Neat amorphous drug generated by spray drying crystallizes within 2 weeks when stored in an open container at 5° C./ambient relative humidity (RH), 30° C./65% RH, 40° C./75% RH, and 60° C./ambient RH.

A short description of data set [2]: Pharmacokinetic profile in fasted beagle dogs. In kind it is in vivo. As to conditions: dog, blood, po, 1 mg/kg; for Cmax / AUC(0-t): 3 fasted beagle dogs; for AUC(0-t): read-out: AUC0-24. How it is done: The API is Compound A, or a pharmaceutically acceptable salt thereof. Bioavailability is determined in vivo by dosing trial formulations and/or other formulations of the active pharmaceutical ingredient (API) to Beagle dogs at a dose of 1 mg/kg of the API and then measuring the amount of API in the serum or blood as a function of time. The spray dried particles from Spray Dry Process I were made into granules as follows. The particles were blended in a suitable blender (V or Bohle) with microcrystalline cellulose (diluent/compression aid), lactose (diluent/compression aid), croscarmellose sodium (a disintegrant), colloidal silicon dioxide (a glidant), and magnesium stearate (a lubricant). The blended powders were then roller compacted into granules, subjected to extragranular lubrication, and filled into capsules.

Setting [3] is: capsule of spray dried dispersion: 10% Compound A, 40% HPMCAS-LG.
Setting [4] is: comparison capsule: 30% crystalline Compound A without polymer, 5% sodium lauryl sulfate.

Consider `Cn1c(Cn2ccc(C(F)(F)F)c(Oc3cc(Cl)cc(C#N)c3)c2=O)n[nH]c1=O` [Compound A, 3-chloro-5-({1-[(4-methyl-5-oxo-4,5-dihydro-1H-1,2,4-triazol-3-yl)methyl]-2-oxo-4-(trifluoromethyl)-1,2-dihydropyridin-3-yl}oxy)benzonitrile], for which the time to crystallization in data set [1] (5° C./ambient RH), in data set [1] (30° C./65% RH), in data set [1] (40° C./75% RH) and in data set [1] (60° C./ambient RH) was no more than 2 weeks each time. The Tmax in data set [2] came out at 4 h. Moreover, the Cmax in data set [2] (setting [3]) was 7.23 ± 0.99 µM; in data set [2] (setting [4]), 3.46 ± 1.59 µM. Also, the results for the AUC(0-t) in data set [2] (setting [3]) and in data set [2] (setting [4]) were 137 ± 25.3 µM·h and 52.4 ± 15.9 µM·h, respectively.

What is called Tmax is the time at which the peak concentration occurs. Usually Cmax stands for the maximum level reached in the sampled fluid or tissue.
